Tests used:
NCI-H2228 [1] = assay: Induction of apoptosis in human NCI-H2228 cells assessed as viable cells at 0.2 uM incubated for 48 hrs by annexinV-FITC/propidium iodide staining based flow cytometry analysis (reference value: 93.63%); type: functional; conditions: read-out: Activity
NCI-H2228 [2] = assay: Induction of apoptosis in human NCI-H2228 cells assessed as viable cells at 0.6 uM incubated for 48 hrs by annexinV-FITC/propidium iodide staining based flow cytometry analysis (reference value: 93.63%); type: functional; conditions: read-out: Activity
NCI-H2228 [3] = assay: Induction of apoptosis in human NCI-H2228 cells assessed as viable cells at 1.8 uM incubated for 48 hrs by annexinV-FITC/propidium iodide staining based flow cytometry analysis (reference value: 93.63%); type: functional; conditions: read-out: Activity
NCI-H2228 [4] = assay: Induction of apoptosis in human NCI-H2228 cells assessed as early apoptotic cells at 0.2 uM incubated for 48 hrs by annexinV-FITC/propidium iodide staining based flow cytometry analysis (reference value: 1.84%); type: functional
NCI-H2228 [5] = assay: Induction of apoptosis in human NCI-H2228 cells assessed as early apoptotic cells at 0.6 uM incubated for 48 hrs by annexinV-FITC/propidium iodide staining based flow cytometry analysis (reference value: 1.84%); type: functional
NCI-H2228 [6] = assay: Induction of apoptosis in human NCI-H2228 cells assessed as early apoptotic cells at 1.8 uM incubated for 48 hrs by annexinV-FITC/propidium iodide staining based flow cytometry analysis (reference value: 1.84%); type: functional
NCI-H2228 [7] = assay: Induction of apoptosis in human NCI-H2228 cells assessed as late apoptotic cells at 0.2 uM incubated for 48 hrs by annexinV-FITC/propidium iodide staining based flow cytometry analysis (reference value: 2.40%); type: functional
NCI-H2228 [8] = assay: Induction of apoptosis in human NCI-H2228 cells assessed as late apoptotic cells at 0.6 uM incubated for 48 hrs by annexinV-FITC/propidium iodide staining based flow cytometry analysis (reference value: 2.40%); type: functional
NCI-H2228 [9] = assay: Induction of apoptosis in human NCI-H2228 cells assessed as late apoptotic cells at 1.8 uM incubated for 48 hrs by annexinV-FITC/propidium iodide staining based flow cytometry analysis (reference value: 2.40%); type: functional
NCI-H2228 [10] = assay: Induction of apoptosis in human NCI-H2228 cells assessed as necrotic at 0.2 uM incubated for 48 hrs by annexinV-FITC/propidium iodide staining based flow cytometry analysis (reference value: 2.12%); type: functional
NCI-H2228 [11] = assay: Induction of apoptosis in human NCI-H2228 cells assessed as necrotic at 0.6 uM incubated for 48 hrs by annexinV-FITC/propidium iodide staining based flow cytometry analysis (reference value: 2.12%); type: functional
NCI-H2228 [12] = assay: Induction of apoptosis in human NCI-H2228 cells assessed as necrotic at 1.8 uM incubated for 48 hrs by annexinV-FITC/propidium iodide staining based flow cytometry analysis (reference value: 2.12%); type: functional
NCI-H2228 [13] = assay: Induction of cell cycle arrest in human NCI-H2228 cells assessed as accumulation of cells at G1 phase at 0.2 uM incubated for 48 hrs propidium iodide staining based flow cytometric analysis (reference value: 59.82%); type: functional
NCI-H2228 [14] = assay: Induction of cell cycle arrest in human NCI-H2228 cells assessed as accumulation of cells at G1 phase at 0.6 uM incubated for 48 hrs propidium iodide staining based flow cytometric analysis (reference value: 59.82%); type: functional
NCI-H2228 [15] = assay: Induction of cell cycle arrest in human NCI-H2228 cells assessed as accumulation of cells at G1 phase at 1.8 uM incubated for 48 hrs propidium iodide staining based flow cytometric analysis (reference value: 59.82%); type: functional
NCI-H2228 [16] = assay: Induction of cell cycle arrest in human NCI-H2228 cells assessed as accumulation of cells at S phase at 0.2 uM incubated for 48 hrs propidium iodide staining based flow cytometric analysis (reference value: 28.16%); type: functional
NCI-H2228 [17] = assay: Induction of cell cycle arrest in human NCI-H2228 cells assessed as accumulation of cells at S phase at 0.6 uM incubated for 48 hrs propidium iodide staining based flow cytometric analysis (reference value: 28.16%); type: functional
NCI-H2228 [18] = assay: Induction of cell cycle arrest in human NCI-H2228 cells assessed as accumulation of cells at S phase at 1.8 uM incubated for 48 hrs propidium iodide staining based flow cytometric analysis (reference value: 28.16%); type: functional
NCI-H2228 [19] = assay: Induction of cell cycle arrest in human NCI-H2228 cells assessed as accumulation of cells at G2/M phase at 0.2 uM incubated for 48 hrs propidium iodide staining based flow cytometric analysis (reference value: 12.02%); type: functional
NCI-H2228 [20] = assay: Induction of cell cycle arrest in human NCI-H2228 cells assessed as accumulation of cells at G2/M phase at 0.6 uM incubated for 48 hrs propidium iodide staining based flow cytometric analysis (reference value: 12.02%); type: functional
NCI-H2228 [21] = assay: Induction of cell cycle arrest in human NCI-H2228 cells assessed as accumulation of cells at G2/M phase at 1.8 uM incubated for 48 hrs propidium iodide staining based flow cytometric analysis (reference value: 12.02%); type: functional
KARPAS-299 = assay: cells; conditions: Homo sapiens, KARPAS-299, 96 h
Description: Antiproliferative activity against NPM-ALK positive human KARPAS-299 cells assessed as inhibition of cell growth incubated for 96 hrs by CCK-8 assay

NCI-H2228 [22] = assay: cells; conditions: Homo sapiens, NCI-H2228, 96 h
Description: Antiproliferative activity against EML4-ALK positive human NCI-H2228 cells assessed as inhibition of cell growth incubated for 96 hrs by MTT assay

A549 = assay: cells; conditions: Homo sapiens, A549, 96 h
Description: Antiproliferative activity against ALK-negative human A549 cells assessed as inhibition of cell growth incubated for 96 hrs by MTT assay

HCT-116 = assay: cells; conditions: Homo sapiens, HCT-116, 96 h
Description: Antiproliferative activity against ALK-negative human HCT-116 cells assessed as inhibition of cell growth incubated for 96 hrs by MTT assay

Cc1cc(Nc2ncc(Cl)c(Nc3ccccc3S(=O)(=O)C(C)C)n2)c(OC(C)C)cc1C1CCN(C(=O)SCC(=S)N2CCS(=O)(=O)CC2)CC1 was tested, and the viability at 0.2 µM (NCI-H2228 [1]) was 89.8%, the viability at 0.6 µM (NCI-H2228 [2]) was 84.4% and the viability at 1.8 µM (NCI-H2228 [3]) was 79.1%. The Activity (NCI-H2228 [4]) was 4.31%, the Activity (NCI-H2228 [5]) was 5.7% and the Activity (NCI-H2228 [6]) was 8.84%. It also gave an Activity (NCI-H2228 [7]) of 3.65%, an Activity (NCI-H2228 [8]) of 6.37% and an Activity (NCI-H2228 [9]) of 8.06%. For the same compound, the Activity (NCI-H2228 [10]) was 2.24%, the Activity (NCI-H2228 [11]) was 3.5% and the Activity (NCI-H2228 [12]) was 4.04%. The Activity (NCI-H2228 [13]) was 59.7%, the Activity (NCI-H2228 [14]) was 59.11% and the Activity (NCI-H2228 [15]) was 56.55%. For the same compound, the Activity (NCI-H2228 [16]) was 24.71%, the Activity (NCI-H2228 [17]) was 22.74% and the Activity (NCI-H2228 [18]) was 16.1%. For the same compound, the Activity (NCI-H2228 [19]) was 15.59%, the Activity (NCI-H2228 [20]) was 18.15% and the Activity (NCI-H2228 [21]) was 27.35%. For the same compound, the IC50 (KARPAS-299) was 70 nM, the IC50 (NCI-H2228 [22]) was 70 nM and the IC50 (A549) was over 10000 nM. For the same compound, the IC50 (HCT-116) was 5530 nM.

Reference: ChEMBL document CHEMBL5143704, “Discovery of 2,4-diarylaminopyrimidine derivatives bearing dithiocarbamate moiety as novel ALK inhibitors” (Bioorg Med Chem, 2022)
